Data on 25 molecules can be found in US20090176811A1, “Substituted 5,6,7,8-Tetrahydro-pyrido[4,3-d]pyrimidine-2-yl Compounds and 5,6,7,8-Tetrahydro-quinazoline-2-yl Compounds” (GRUENENTHAL GmbH, priority 2004, published 2009).

What is called inhibition is the drop in the measured response relative to a control, in per cent. Higher therefore signals a strong effect.

Experiment [1] deals with T1, 5-HT transporter (Rattus norvegicus, UniProt P31652).
T1 construct: from tissue; host or cells: rat medulla and pons synaptosomes (P2 fraction)
The experiment is described as follows: 5-HT uptake inhibition in rat brain synaptosomes (medulla and pons). It counts as biochemical. From the text: (§1) I. Method for Determining Noradrenalin and 5-HT Uptake Inhibition:
(§2) Synaptosomes from rat brain regions are freshly isolated for in vitro studies, as described in the publication “The isolation of nerve endings from brain” by E. G. Gray and V. P. Whittaker, J. Anatomy 96, pages 79-88, 1962. The corresponding literature description is hereby introduced as a reference and is deemed to be part of the disclosure.
(§3) The tissue (hypothalamus for the determination of noradrenalin uptake inhibition and medulla and pons for the determination of 5-HT uptake inhibition) is homogenised in ice-cooled 0.32 M sucrose (100 mg of tissue/1 mL) in a glass homogeniser with Teflon pestle using five complete up and down strokes at 840 revolutions/minute.
(§4) The homogenate is centrifuged at 4° C. for 10 minutes at 1000 g. After subsequent centrifugation at 17000 g for 55 minutes, the synaptosomes (P2 fraction) are obtained, which are resuspended in 0.32 M […] (0.5 mL/100 mg of original weight).
(§5) The particular uptake is measured in a 96-well microtitre plate. The volume is 250 μl and the incubation proceeds at room temperature (approx. 20-25° C.) under an O2 atmosphere.
(§6) The incubation time is 7.5 minutes for [^3H]-NA and 5 minutes for [^3H]-5-HT.
(§7) The 96 samples are then filtered through a Unifilter GF/B microtitre plate (Packard) and washed with 200 mL of incubated buffer using a “Brabdel MPXRI-96T Cell-Harvester”. The Unifilter GF/B plate is dried for 1 hour at 55° C. The plate is then sealed with a Back seal (Packard) and 35 μl of scintillation fluid are added per well (Ultima Gold, Packard). After sealing with a top seal (Packard) and establishing an equilibrium (around 5 hours), radioactivity is determined in a “Trilux 1450 Microbeta” (Wallac).
(§8) The quantity of protein used in the above determination corresponds to the values known from the literature, as for example described in “Protein measurement with the folin phenol reagent”, Lowry et al., J. Biol. Chem., 193, 265-275, 1951.
(§9) A detailed description of the method may additionally be found in the literature, for example in M. Ch. Frink, H.-H. Hennies, W. Engelberger, M. Haurand and B. Wilffert (1996) Arzneim.-Forsch./Drug Res. 46 (III), 11, 1029-1036.
(§10) The corresponding literature descriptions are hereby introduced in each case as a reference and are deemed to be part of the present disclosure.
(§11) The following characteristics were determined for the NA or 5-HT transporter: […]

The target of experiment [2] is T2, NA transporter (Rattus norvegicus, UniProt Q63380).
T2 construct: from tissue; host or cells: rat hypothalamus synaptosomes (P2 fraction)
In words: Noradrenalin uptake inhibition in rat brain synaptosomes (hypothalamus). It is filed as biochemical.
Source text: as §1, §2, §3, §4, §5, §6, §7, §8, §9, §10, §11

T2 sequence (Q63380 1-617): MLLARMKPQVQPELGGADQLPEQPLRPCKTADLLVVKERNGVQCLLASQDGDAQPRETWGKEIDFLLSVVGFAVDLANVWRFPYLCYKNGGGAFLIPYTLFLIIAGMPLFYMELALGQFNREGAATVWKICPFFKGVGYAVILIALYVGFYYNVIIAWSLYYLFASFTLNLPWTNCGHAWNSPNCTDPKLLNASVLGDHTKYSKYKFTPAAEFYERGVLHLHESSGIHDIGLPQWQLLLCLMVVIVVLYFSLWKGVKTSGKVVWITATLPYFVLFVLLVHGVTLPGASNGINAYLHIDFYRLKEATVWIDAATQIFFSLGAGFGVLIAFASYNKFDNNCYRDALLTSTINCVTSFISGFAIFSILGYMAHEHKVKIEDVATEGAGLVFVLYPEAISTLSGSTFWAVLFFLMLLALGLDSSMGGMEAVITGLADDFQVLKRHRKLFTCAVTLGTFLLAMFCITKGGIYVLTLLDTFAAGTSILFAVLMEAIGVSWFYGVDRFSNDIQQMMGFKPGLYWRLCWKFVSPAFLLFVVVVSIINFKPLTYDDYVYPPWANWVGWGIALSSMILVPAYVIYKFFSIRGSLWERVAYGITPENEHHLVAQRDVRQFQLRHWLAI
T1 sequence (P31652 whole entry): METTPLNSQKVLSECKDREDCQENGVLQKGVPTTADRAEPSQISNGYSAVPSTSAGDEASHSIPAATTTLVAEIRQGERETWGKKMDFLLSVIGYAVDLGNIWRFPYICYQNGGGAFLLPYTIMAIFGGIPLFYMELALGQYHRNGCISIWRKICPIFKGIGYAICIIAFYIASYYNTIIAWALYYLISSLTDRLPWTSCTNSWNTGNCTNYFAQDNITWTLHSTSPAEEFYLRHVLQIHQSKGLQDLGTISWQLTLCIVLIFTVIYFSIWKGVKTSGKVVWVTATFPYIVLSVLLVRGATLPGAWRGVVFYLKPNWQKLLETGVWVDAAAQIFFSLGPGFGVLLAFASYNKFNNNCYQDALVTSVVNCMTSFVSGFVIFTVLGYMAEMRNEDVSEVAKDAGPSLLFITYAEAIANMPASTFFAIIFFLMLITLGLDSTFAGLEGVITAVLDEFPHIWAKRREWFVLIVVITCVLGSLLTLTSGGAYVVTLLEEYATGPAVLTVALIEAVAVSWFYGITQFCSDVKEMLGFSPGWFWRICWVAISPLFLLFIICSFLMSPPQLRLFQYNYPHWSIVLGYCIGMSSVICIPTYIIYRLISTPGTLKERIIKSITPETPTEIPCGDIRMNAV

The molecule `O=C(Nc1ncc2c(n1)CCN(C(=O)c1sc3ccccc3c1Cl)C2)c1cccs1` [Example 110, thiophene-2-carboxylic acid [6-(3-chloro-benzo[b]thiophene-2-carbonyl)-5,6,7,8-tetrahydro-pyrido[4,3-d]pyrimidin-2-yl]-amide] displayed an inhibition at 1 µM in experiment [1] of 96%. Also, 10 µM produced 75% inhibition in experiment [2]. With `O=C(Nc1ncc2c(n1)CCN(C(=O)c1ccc3ccccc3c1)C2)c1ccc(Cl)cc1` [Example 69], in experiment [1], the “5-HT uptake, rat, 1 μM, % inhibition” value is listed as 70%. Further, the “NA uptake, rat, 10 μM, % inhibition” value in experiment [2] is on record as 73%. In experiment [1], `O=C(Nc1ncc2c(n1)CCN(C(=O)C1=Cc3ccccc3OC1)C2)c1ccc(F)c(F)c1` [Example 175, N-[6-(2H-chromene-3-carbonyl)-5,6,7,8-tetrahydro-pyrido[4,3-d]pyrimidin-2-yl]-3,4-difluoro-benzamide] showed an inhibition at 1 µM of 32%. The inhibition at 10 µM in experiment [2] came out at 46%. On the same counts, the results for `O=C(Nc1ncc2c(n1)CCN(S(=O)(=O)c1ccc(Cl)s1)C2)c1cccc2ccccc12` [Example 117, naphthalene-1-carboxylic acid [6-(5-chloro-thiophene-2-sulfonyl)-5,6,7,8-tetrahydro-pyrido[4,3-d]pyrimidin-2-yl]-amide] are 32% and 31%. On the same counts, the results for `COc1ccc(C(=O)N2CCc3nc(NC(=O)c4cccc(Cl)c4)ncc3C2)cc1OC` [Example 119, 3-chloro-N-[6-(3,4-dimethoxy-benzoyl)-5,6,7,8-tetrahydro-pyrido[4,3-d]pyrimidin-2-yl]-benzamide] are 34% and 72%.

With `O=C(Nc1ncc2c(n1)CCN(C(=O)c1sc3ccccc3c1Cl)C2)c1ccccc1` [Example 120, N-[6-(3-chloro-benzo[b]thiophene-2-carbonyl)-5,6,7,8-tetrahydro-pyrido[4,3-d]pyrimidin-2-yl]-benzamide], in experiment [1], 1 µM produced 92% inhibition. Moreover, the inhibition at 10 µM in experiment [2] stood at 78%.

In the case of `O=C(Nc1ncc2c(n1)CCN(C(=O)c1c(F)cccc1Cl)C2)c1cccc(Cl)c1` [Example 127, 3-chloro-N-[6-(2-chloro-6-fluoro-benzoyl)-5,6,7,8-tetrahydro-pyrido[4,3-d]pyrimidin-2-yl]-benzamide], the inhibition at 1 µM in experiment [1] was 35%. Besides, in experiment [2], the inhibition at 10 µM is 71%. On the same counts, the results for `COc1ccccc1C(=O)Nc1ncc2c(n1)CCN(S(=O)(=O)c1c(C)cc(OC)c(C)c1C)C2` [Example 158, 2-methoxy-N-[6-(4-methoxy-2,3,6-trimethyl-benzenesulfonyl)-5,6,7,8-tetrahydro-pyrido[4,3-d]pyrimidin-2-yl]-benzamide] are 55% and 36%. The molecule `O=C(Nc1ncc2c(n1)CCN(C(=O)c1ccc(OC(F)(F)F)cc1)C2)c1cc(Cl)cc(Cl)c1` [Example 192, 3,5-dichloro-N-[6-(4-trifluoromethoxy-benzoyl)-5,6,7,8-tetrahydro-pyrido[4,3-d]pyrimidin-2-yl]-benzamide] registered an inhibition at 1 µM in experiment [1] of 47%. The molecule further came in with an inhibition at 10 µM in experiment [2] of 73%. `CC(C)(C)c1ccc(C(=O)Nc2ncc3c(n2)CCN(C(=O)c2csc4ccccc24)C3)cc1` [Example 184, N-[6-(benzo[b]thiophene-3-carbonyl)-5,6,7,8-tetrahydro-pyrido[4,3-d]pyrimidin-2-yl]-4-tert-butyl-benzamide]: 1 µM produced 48% inhibition in experiment [1]. The molecule further returned an inhibition at 10 µM in experiment [2] of 69%.

Regarding `O=C(Nc1ncc2c(n1)CCN(C(=O)CCCCc1ccccc1)C2)c1ccccc1` [Example 190, N-[6-(5-phenyl-pentanoyl)-5,6,7,8-tetrahydro-pyrido[4,3-d]pyrimidin-2-yl]-benzamide], testing at 1 µM in experiment [1] gave an inhibition of 36%. The same molecule displayed an inhibition at 10 µM in experiment [2] of 73%. In the case of `COc1ccc(S(=O)(=O)N2CCc3nc(NC(=O)c4ccc(F)cc4)ncc3C2)cc1` [Example 185, 4-fluoro-N-[6-(4-methoxy-benzenesulfonyl)-5,6,7,8-tetrahydro-pyrido[4,3-d]pyrimidin-2-yl]-benzamide], the inhibition at 10 µM in experiment [2] is 36%. Take `O=C(Nc1ncc2c(n1)CCN(S(=O)(=O)c1cccc(Br)c1)C2)c1cccc(Cl)c1` [Example 125, N-[6-(3-bromo-benzenesulfonyl)-5,6,7,8-tetrahydro-pyrido[4,3-d]pyrimidin-2-yl]-3-chloro-benzamide]: the inhibition at 1 µM in experiment [1] came out at 43%. Moreover, in experiment [2], the inhibition at 10 µM came out at 70%. In experiment [2], `O=C(Nc1ncc2c(n1)CCN(S(=O)(=O)c1cccs1)C2)c1ccc(F)c(F)c1` [Example 72, 3,4-difluoro-N-[6-(thiophene-2-sulfonyl)-5,6,7,8-tetrahydro-pyrido[4,3-d]pyrimidin-2-yl]-benzamide] gave an inhibition at 10 µM of 41%. Same read-out and setting: under `COc1ccccc1C(=O)Nc1ncc2c(n1)CCN(S(=O)(=O)c1ccc(Cl)s1)C2` [Example 86, N-[6-(5-chloro-thiophene-2-sulfonyl)-5,6,7,8-tetrahydro-pyrido[4,3-d]pyrimidin-2-yl]-2-methoxy-benzamide] stands 32%.

In the case of `CCc1ccc(C(=O)Nc2ncc3c(n2)CCN(C(=O)c2ccc(Cl)c(Cl)c2)C3)cc1` [Example 101, N-[6-(3,4-dichloro-benzoyl)-5,6,7,8-tetrahydro-pyrido[4,3-d]pyrimidin-2-yl]-4-ethyl-benzamide], in experiment [1], the inhibition at 1 µM is 65%. The molecule further registered an inhibition at 10 µM in experiment [2] of 84%. In turn, `CC(C(=O)N1CCc2nc(NC(=O)c3ccccc3)ncc2C1)c1ccc(Cl)cc1` (centres unmarked) [Example 176, N-{6-[2-(4-chloro-phenyl)-propionyl]-5,6,7,8-tetrahydro-pyrido[4,3-d]pyrimidin-2-yl}-benzamide] came in with an inhibition at 10 µM in experiment [2] of 38%.

Turning to `O=C(Nc1ncc2c(n1)CCN(C(=O)Cc1ccc(Cl)cc1)C2)c1ccc(Cl)c(Cl)c1` [Example 126, 3,4-dichloro-N-{6-[2-(4-chloro-phenyl)-acetyl]-5,6,7,8-tetrahydro-pyrido[4,3-d]pyrimidin-2-yl}-benzamide], 1 µM produced 55% inhibition in experiment [1]. The same molecule returned an inhibition at 10 µM in experiment [2] of 89%. On the same counts, the results for `CC(C)(C)c1ccc(C(=O)Nc2ncc3c(n2)CCN(S(=O)(=O)c2ccc([N+](=O)[O-])cc2)C3)cc1` [Example 83, 4-tert-butyl-N-[6-(4-nitro-benzenesulfonyl)-5,6,7,8-tetrahydro-pyrido[4,3-d]pyrimidin-2-yl]-benzamide] are 39% and 77%. As for `CCc1ccc(C(=O)Nc2ncc3c(n2)CCN(S(=O)(=O)c2ccccc2Cl)C3)cc1` [Example 114, N-[6-(2-chloro-benzenesulfonyl)-5,6,7,8-tetrahydro-pyrido[4,3-d]pyrimidin-2-yl]-4-ethyl-benzamide], in experiment [1], the inhibition at 1 µM came out at 50%. The same molecule displayed an inhibition at 10 µM in experiment [2] of 73%. `CCOC(=O)CC(=O)N1CCc2nc(NC(=O)c3cccc(Cl)c3)ncc2C1` [Example 124, 3-[2-(3-chloro-benzoylamino)-7,8-dihydro-5H-pyrido[4,3-d]pyrimidin-6-yl]-3-oxo-propionic acid ethyl ester] displayed an inhibition at 10 µM in experiment [2] of 65%.

Turning to `COc1cccc(C(=O)Nc2ncc3c(n2)CCN(C(=O)c2cccc(OC(F)(F)F)c2)C3)c1` [Example 199, 3-methoxy-N-[6-(3-trifluoromethoxy-benzoyl)-5,6,7,8-tetrahydro-pyrido[4,3-d]pyrimidin-2-yl]-benzamide], the inhibition at 10 µM in experiment [2] turned out to be 52%. `COc1ccccc1C(=O)Nc1ncc2c(n1)CCN(C(=O)COCc1ccccc1)C2` [Example 195, N-[6-(2-benzyloxy-acetyl)-5,6,7,8-tetrahydro-pyrido[4,3-d]pyrimidin-2-yl]-2-methoxy-benzamide] gave an inhibition at 10 µM in experiment [2] of 31%. The molecule `O=C(Nc1ncc2c(n1)CCN(C(=O)c1cccc(F)c1)C2)c1cccc2ccccc12` [Example 183, naphthalene-1-carboxylic acid [6-(3-fluoro-benzoyl)-5,6,7,8-tetrahydro-pyrido[4,3-d]pyrimidin-2-yl]-amide] came in with an inhibition at 10 µM in experiment [2] of 63%. In turn, `COc1cccc(C(=O)Nc2ncc3c(n2)CCN(C(=O)c2cccc(F)c2F)C3)c1` [Example 80, N-[6-(2,3-difluoro-benzoyl)-5,6,7,8-tetrahydro-pyrido[4,3-d]pyrimidin-2-yl]-3-methoxy-benzamide] came in with an inhibition at 10 µM in experiment [2] of 54%.
